The source of these data is patent US12415799B2, “Indazole-fused cyclic compound” (Zhejiang Yangli Pharmaceutical Technology Co., Ltd., priority 2020, dated 2025).

Structures are written as SMILES. Like-named read-outs stand apart in the source and are kept apart here.

One data set has as its system MCF-7 cells. Put plainly: MCF-7 cell proliferation inhibition experiment. Type of data set: cell-based. To be noted: 6 days incubation, CellTiter-Glo, read-out: Anti-cell proliferation activity of MCF-7. On the procedure: (1) MCF-7 Cell Proliferation Inhibition Experiment:
EMEM culture medium was purchased from Wisent, and fetal bovine serum was purchased from Biosera, Promega CellTiter-Glo reagent. MCF-7 cell line was purchased from Cell Bank of Type Culture Collection of Chinese Academy of Sciences. Nivo5 multi-label analyzer (PerkinElmer).
MCF-7 cells were seeded in a white 384-well plate with 600 cells per well in every […] of the cell suspension. The cell plate was placed in a carbon dioxide incubator and cultured overnight.
The test compound was diluted to the 10th concentration with a multi-channel pipette, and the compound concentration was 1 mM, 400 μM, and 80 μM, and then diluted to the 10th concentration of 1 nM in turn, and a double-duplicate experiment was set-up. 47.5 μL of culture medium was added to the middle plate, then 2.5 μL of gradient dilution compound per well was transferred to the middle plate according to the corresponding position, and 5 μL of the mixture per well was mixed evenly and transferred to the cell plate. The cell plate was placed in a carbon dioxide incubator and cultured for 6 days.
After 6 days of co-incubation of the compound, the culture medium was removed by centrifugation, and 25 μL of Promega CellTiter-Glo reagent was added to each well of the cell plate, and incubated at room temperature for 10 minutes to stabilize the luminescence signal. PerkinElmer Nivo multi-marker analyzer reading was used. In the experiment, the reading of 2 μM positive reference compound H3B-6545(US20160347717A1) was used as a positive control to participate in data calculation.
The equation % Inhibition=((RFUCmpd−AVER(RFUNeg.ctrl))/((AVER(RFUPos.Ctrl)−AVER(RFUNeg.ctrl))×100% was used to convert the original data into inhibition rate, and the compound curve was fitted by log(inhibitor)vs. response-Variable slope of Graphpad Prism 5. The IC50 value was calculated by the software through the formula Y=Bottom+(Top−Bottom)/(1+10^((Log IC50−X)*HillSlope)).
Background: ATP-based viability assays read luminescence as a measure of living cells.

Another data set has as its system rat uterus. Put plainly: Uterine wet weight inhibition experiment in rat cubs. The class given is in vivo. To be noted: 18-day-old female rat pups, oral, three consecutive days; compounds 25 mg/kg, Ethinylestradiol 0.1 mg/kg. On the procedure:
The purpose of this experiment was to evaluate the effect of the compound of the present disclosure on uterine growth inhibition in 18 to 21-day-old female rat pups (provided by Beijing Vital River Laboratory Animal Technology Co., Ltd.). In this experiment, 18-day-old female rat pups were orally administered the compound of the present disclosure at a dose of 25 mg/kg for three consecutive days, and the control group was orally administered 0.1 mg/kg of Ethinylestradiol for three consecutive days, and the blank group was not given any drug except the corresponding solvent. Three days after the administration, the rats were sacrificed, and the weight of the rat uterus was weighed to observe the effect of the test drug on the growth inhibition of the rat uterus. Inhibition rate=100×[(VehicleEE−Cpd)/(VehicleEE−Vehicle)], VehicleEE was the wet weight of the rat uterus in the control group (administered 0.1 mg/kg of Ethinylestradiol orally); Cpd was the wet weight of the rat uterus in administration group; Vehicle was the wet weight of the rat uterus in the blank group.

A further data set deals with CYP3A4 (Homo sapiens (Human), UniProt P08684). Put plainly: Cytochrome P450 isoenzyme inhibition, human liver microsomes. The class given is in vitro ADME. On the procedure:
Experimental purposes: To test the inhibitory effect of test compound on the activity of human liver microsomal cytochrome P450 isoenzymes (CYP1A2 and CYP3A4) (Corning, Co., Ltd.).
Experimental operation: Firstly, the test compound (10 mM) was subjected to gradient dilution to prepare a working solution (100×final concentration), and the concentration of the working solution was: 5, 1.5, 0.5, 0.15, 0.05, 0.015 and 0.005 mM, respectively, and the working solution of each positive inhibitor of P450 isoenzyme (CYP1A2 and CYP3A4) and its specific substrate mixture (5 in 1) were prepared; and then the human liver microsomes frozen in the −80° C. refrigerator were thawed on ice, and all the human liver microsomes were dissolved, diluted with PB, and a certain concentration of working solution (0.253 mg/mL) was prepared; 20 μL of substrate mixture was added to the reaction plate (20 μL of PB was added to the blank well), while 158 μL of human liver microsomal working solution was added to the reaction plate, and the reaction plate was placed on ice for later use; at this time, 2 μL of various concentrations of the test compound (N=1) and specific inhibitor (N=2) were added to the corresponding well, and the corresponding organic solvent was added to the non-inhibitor (test compound or positive inhibitor) group as a control group sample (a ratio of DMSO:MeOH in the test compound control sample was 1:1, a ratio of DMSO:MeOH in the positive control sample was 1:9); after pre-incubation in a water bath at 37° C. for 10 min, 20 μL of coenzyme factor (NADPH) solution was added to the reaction plate, and incubated in a water bath at 37° C. for 10 min; and 400 μL of cold acetonitrile solution (internal standard was 200 ng/mL tolbutamide and labetalol) was added to terminate the reaction; the reaction plate was placed on a shaker and shaked for 10 minutes; and then centrifuged at 4,000 rpm for 20 minutes; 200 μL of the supernatant was taken and added to 100 μL of water for sample dilution; finally the plate was sealed, shaked and shaked well, for LC/MS/MS detection.
Background: Microsomes from liver hold many membrane-bound enzymes, among them those of drug oxidation.

Chain of CYP3A4 (P08684 whole entry): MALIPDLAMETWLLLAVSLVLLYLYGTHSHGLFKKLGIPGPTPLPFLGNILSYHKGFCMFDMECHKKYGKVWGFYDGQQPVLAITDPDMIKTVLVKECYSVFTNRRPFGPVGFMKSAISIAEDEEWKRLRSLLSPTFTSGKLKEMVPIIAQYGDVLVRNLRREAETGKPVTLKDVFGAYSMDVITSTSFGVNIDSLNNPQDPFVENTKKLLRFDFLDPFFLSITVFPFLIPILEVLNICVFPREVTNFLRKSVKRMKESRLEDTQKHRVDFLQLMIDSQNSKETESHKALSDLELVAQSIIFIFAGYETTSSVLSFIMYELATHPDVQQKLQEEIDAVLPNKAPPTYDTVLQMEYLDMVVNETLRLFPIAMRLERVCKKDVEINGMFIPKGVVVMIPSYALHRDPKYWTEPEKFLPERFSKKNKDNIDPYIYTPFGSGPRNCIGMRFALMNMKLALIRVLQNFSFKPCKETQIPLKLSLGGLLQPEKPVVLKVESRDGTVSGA

For `FCCCN1CC[C@H](Nc2cnc(C3=C(CC(F)(F)F)CCCc4c3ccc3[nH]nc(F)c43)cn2)C1` [Compound 11A], the IC50 with MCF-7 cells was determined as 0.00017 µM. In addition, in the data set on rat uterus, the Inhibition rate is on record as 99.0%, the “Ratio of uterine wet weight/rat body weight” value worked out at 1.05 mg/g and the Uterine wet weight was found to be 49.725 mg. At CYP3A4, this compound displayed an IC50 of 25.7 µM.
As for `FCCCN1CC(Nc2ccc(C3=C(CC(F)(F)F)CCCc4c3ccc3[nH]nc(F)c43)nc2)C1` [Compound 2], in the data set with MCF-7 cells (Homo sapiens, MCF7, 144 h), the IC50 was found to be 0.00042 µM. Also, in the data set on rat uterus, the Inhibition rate turned out to be 95.8%, the “Ratio of uterine wet weight/rat body weight” value worked out at 0.84 mg/g and the Uterine wet weight stood at 52.34 mg. Moreover, on CYP3A4, the IC50 worked out at 47.2 µM.
